Reference: patent US20100184815A1 (priority 2008, published 2010)
Read-outs that look alike come from different tables or passages of the source.

Legend:
Full Length hPPARα = target: T1, Full Length hPPARα (Homo sapiens, UniProt Q07869); experiment: Full length hPPARα transfection assay; format: cell-based; conditions: full length receptor; read-out: Full Length hPPAR α EC50 (scaled number)
T1 construct: Full Length; expressed in transfected cells; host or cells: Cos cells
T1 sequence (Q07869 1-468): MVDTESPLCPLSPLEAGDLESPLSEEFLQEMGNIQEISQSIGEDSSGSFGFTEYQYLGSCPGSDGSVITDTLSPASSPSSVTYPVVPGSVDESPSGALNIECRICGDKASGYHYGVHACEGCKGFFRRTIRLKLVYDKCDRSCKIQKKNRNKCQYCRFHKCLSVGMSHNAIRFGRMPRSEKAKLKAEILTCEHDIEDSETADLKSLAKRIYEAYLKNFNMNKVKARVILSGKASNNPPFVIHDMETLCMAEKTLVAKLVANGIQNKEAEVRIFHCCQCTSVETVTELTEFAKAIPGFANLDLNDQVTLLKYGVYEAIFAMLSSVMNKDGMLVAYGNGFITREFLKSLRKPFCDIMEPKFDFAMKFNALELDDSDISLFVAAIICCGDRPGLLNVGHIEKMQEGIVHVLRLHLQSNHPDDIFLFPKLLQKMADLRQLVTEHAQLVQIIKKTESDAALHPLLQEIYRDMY
Description: Transient transfection assays. Cos cells were seeded in 60-mm dishes at a density of 5.5×10^5 cells/dish in Dulbecco's modified Eagle's medium (DMEM) supplemented with 10% fetal calf serum (FCS) and incubated at 37° C. for 24 hours before transfection. Cells were transfected in Opti-MEM (Gibco; Invitrogen, Carlsbad, Calif.) without FCS for 3 hours at 37° C., using polyethylenimine, with reporter and expression plasmids. The plasmid pBluescript (Stratagene, La Jolla, Calif.) was used as carrier DNA to set the final amount of DNA to 5.5 μg/dish. The pCMV-b-galactosidase expression plasmid was cotransfected as a control for transfection efficiency. Transfection was stopped by the addition of DMEM supplemented with 10% FCS, and cells were then incubated at 37° C. After 16 hours, cells were trypsinized and seeded in 96-well plates at the density of 2×10^4 cells/well and incubated for 6 hours in 10% FCS-containing DMEM. Cells were then incubated for 24 hours in DMEM containing 0.2% FCS and increasing concentrations of the compound tested or vehicle (DMSO). At the end of the experiment, cells were washed once with ice-cold PBS, lysed and the luciferase and b-galactosidase assays were performed in a luminometer and spectrophotomer. Transfection efficiencies were normalized with the b-galactosidase activity assay. Half-maximal effective concentration (EC50) was estimated using Prism software (GraphPad). All transfection experiments were performed at least three times.
In the following tables, proprietary compound EC50 values for hPPAR α, β, δ and γ are shown. The EC50 value is the concentration of a drug that induces a response halfway between the baseline and maximum, and is commonly used as a measure of drug potency. EC50 values are reported on a scale of 1 through 5, wherein the value scale is defined for each receptor as follows: […]

pig liver esterase = experiment: Metabolism studies using pig liver esterase; format: in vitro ADME; conditions: 37° C.
[1] = Metabolism studies using human liver microsomal preparations; format: in vitro ADME; conditions: for HLMs Predominant Enzyme: comparison of half life with and without NADPH: Esterase, CYP or Mixed; for half-life: pH 7.4, read-out: HLMs t1/2
Procedure, shortened: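 Pooled human liver microsomes in 50 mM Tris pH 7.4 with 5 mM MgCl2 at 37° C, with or without NADPH-generating system; buffer-only control for stability. Parent loss and acid metabolite formation followed by LC-MS/MS over 0–90 min. Half-life reported with NADPH; comparison with (−)NADPH assigns predominant enzyme.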

[2] = pig liver esterase in human plasma protein solution, read-out: Pig Liver Esterase (t1/2 min.) (+) Plasma
[3] = pig liver esterase in phosphate buffer pH 7.4, no plasma, read-out: Pig Liver Esterase (t1/2 min.) (−) Plasma
[4] = pooled human liver microsomes, with NADPH (CYP system active), 37° C.
[5] = pig liver esterase in human plasma protein solution

Row | Compound | EC50 (Full Length hPPARα) [nM] | half-life at 4.9 µM (pig liver esterase; [2]) [min] | half-life at 4.9 µM (pig liver esterase; [3]) [min] | HLMs t1/2 (min) [1, 4] | HLMs Predominant Enzyme [1] | half-life [1, 4] [min] | Pig Liver Esterase (t1/2 min.) (+) Plasma (pig liver esterase; [5])
1 | CCCCCCn1c(COC(=O)c2ccc(SC(C)(C)C(=O)O)cc2)nn(Cc2ccc(C)cc2)c1=O [Compound 160, 2-(4-(((4-hexyl-1-(4-methylbenzyl)-5-oxo-4,5-dihydro-1H-1,2,4-triazol-3-yl)methoxy)carbonyl)phenylthio)-2-methylpropanoic acid] | < 1 | > 120 | < 5 | Stable |  |  | 
2 | CCCCCCCCn1c(COC(=O)c2ccc(OC(C)(C)C(=O)O)c(OC)c2)nn(Cc2ccc(C)cc2)c1=O [Compound 186, 2-(2-methoxy-4-(((1-(4-methylbenzyl)-4-octyl-5-oxo-4,5-dihydro-1H-1,2,4-triazol-3-yl)methoxy)carbonyl)phenoxy)-2-methylpropanoic acid] | 51 to 200 |  | 45 |  | CYP | 42 | Stable
3 | CCCCCCn1c(COC(=O)c2ccc(OC(C)(C)C(=O)O)cc2)nn(Cc2ccc(C(C)(C)C)cc2)c1=O [Compound 188, 2-(4-(((1-(4-tert-butylbenzyl)-4-hexyl-5-oxo-4,5-dihydro-1H-1,2,4-triazol-3-yl)methoxy)carbonyl)phenoxy)-2-methylpropanoic acid] | < 1 |  | 9 |  | CYP | > 90 | Stable
4 | CCCCCCCn1c(COC(=O)c2ccc(OC(C)(C)C(=O)O)cc2)nn(Cc2ccc(C)cc2)c1=O [Compound 192, 2-(4-(((4-heptyl-1-(4-methylbenzyl)-5-oxo-4,5-dihydro-1H-1,2,4-triazol-3-yl)methoxy)carbonyl)phenoxy)-2-methylpropanoic acid] | < 1 |  | 27 |  | Mixed | 33 | Stable

The remaining lines, values ahead:

Row | EC50 (Full Length hPPARα) [nM] | half-life at 4.9 µM (pig liver esterase; [2]) [min] | half-life at 4.9 µM (pig liver esterase; [3]) [min] | HLMs t1/2 (min) [1, 4] | HLMs Predominant Enzyme [1] | half-life [1, 4] [min] | Pig Liver Esterase (t1/2 min.) (+) Plasma (pig liver esterase; [5]) | Compound
5 | < 1 | > 120 | < 5 |  | Esterase | 12 |  | CCCCCCCCn1c(COC(=O)c2ccc(SC(C)(C)C(=O)O)cc2)nn(Cc2ccc(C)cc2)c1=O [Compound 161, 2-methyl-2-(4-(((1-(4-methylbenzyl)-4-octyl-5-oxo-4,5-dihydro-1H-1,2,4-triazol-3-yl)methoxy)carbonyl)phenylthio)propanoic acid]
6 | < 1 | 64 | 26 |  | Mixed | 38 |  | CCCCCCn1c(COC(=O)c2ccc(SC(C)(C)C(=O)O)cc2)nn(Cc2ccc(C(C)(C)C)cc2)c1=O [Compound 187, 2-(4-(((1-(4-tert-butylbenzyl)-4-hexyl-5-oxo-4,5-dihydro-1H-1,2,4-triazol-3-yl)methoxy)carbonyl)phenylthio)-2-methylpropanoic acid]
7 | < 1 | 105 | < 5 |  | CYP | 90 |  | CCCCCCCn1c(COC(=O)c2ccc(SC(C)(C)C(=O)O)cc2)nn(Cc2ccc(C(C)(C)C)cc2)c1=O [Compound 189, 2-(4-(((1-(4-tert-butylbenzyl)-4-heptyl-5-oxo-4,5-dihydro-1H-1,2,4-triazol-3-yl)methoxy)carbonyl)phenylthio)-2-methylpropanoic acid]
8 | < 1 |  | 8 |  | CYP | 36 | Stable | CCCCCCCn1c(COC(=O)c2ccc(OC(C)(C)C(=O)O)cc2)nn(Cc2ccc(C(C)(C)C)cc2)c1=O [Compound 190, 2-(4-(((1-(4-tert-butylbenzyl)-4-heptyl-5-oxo-4,5-dihydro-1H-1,2,4-triazol-3-yl)methoxy)carbonyl)phenoxy)-2-methylpropanoic acid]
9 | < 1 |  | < 5 |  | Esterase | 15 | Stable | CCCCCCCn1c(COC(=O)c2ccc(SC(C)(C)C(=O)O)cc2)nn(Cc2ccc(C)cc2)c1=O [Compound 191, 2-(4-(((4-heptyl-1-(4-methylbenzyl)-5-oxo-4,5-dihydro-1H-1,2,4-triazol-3-yl)methoxy)carbonyl)phenylthio)-2-methylpropanoic acid]
